Reference: US7250153B2, “Contrast media formulations having improved biological tolerance” (Biophysica Research, Inc., priority 2002, dated 2007)
Where “and” joins values, the source holds several entries; their conditions need not be identical. Equal values may be shown once. Read-outs that look alike come from different tables or passages of the source.

Assays:
[1] = tested on: mice; conditions: Control, formulated in TRIS/HCl; intravenous; published (Heglund et al. 1995); cited from earlier work
[2] = tested on: rats; conditions: Control, formulated in TRIS/HCl; intravenous; published (Heglund et al. 1995); cited from earlier work
[3] = Stability of iosimenol to autoclave sterilization (20 min at 121° C.), free iodide measured; assay type: physicochemical; conditions: for I− after / I− before: single samples
Experimental: Samples of Iosimenol were formulated in 20 mM TRIS+5 mM citric acid, TRIS/HCl and 10 mM TRIS+3.3 mM citrate. Samples were then autoclaved for 20 minutes at 121° C. and the amounts of free iodine measured.
(§1) A 5 micron C18 column 25 cm×4.6 mm ID was eluted with 30% acetonitrile/70% 0.05 M KH2PO4 containing 7 ml/L of 40% tetrabutyl ammonium hydroxide. 20 μl of a 10 μg I^−/ml was the standard. 20 μl of a test sample of iosimenol was injected and UV absorbance measured at 230 nm, 0.2 AU. Under these conditions, the iodide standard eluted after 5.6 minutes and gave an area of “X” counts.
(§2) Iodide was alternately determined by extraction and spectrophotometry according to USP24/NF19, p 911 (1995). In general, the solution containing iodide is oxidized in the presence of acid, with sodium nitrite and then extracted into toluene which is then read at a wavelength of 500 nm. Comparison of standard samples with experimental samples yields the amount of iodide present in the sample.

[4] = Separate study: stability of iosimenol after autoclaving in TRIS/HCl and TRIS/citric acid (pH, iodide release); assay type: physicochemical; conditions: 121° C. for 20 min; for pH after autoclaving / ΔI−: pre-autoclaving pH 7.00, Ca/Na EDTA 0.1 mg/ml, 340-355 mg I/ml
Experimental: as §1, §2

[5] = tested on: mice; experiment: Intravenous LD50 (systemic tolerance) in mice; assay type: in vivo
Experimental: (§3) To examine the effects of the TRIS/citrate buffer system of this invention on the biological tolerance, using standard methods, we assessed intravenous murine and rat LD50 of iosimenol formulated either in TRIS/HCl or in the novel TRIS/citric acid buffers, and compared the results with those published for the clinically employed nonionic dimer iodixanol (formulated in TRIS/HCl buffer; Heglund IF et al., Acta Radiol. Suppl. 1995:399:69-82). Murine and rat LD50 were obtained by 1 ml/min injection of 340 mg I/ml; data at 7 days and based on the 50% survival of the animals was expressed as g I/kg bw (Table 3).

[6] = tested on: rats; experiment: Intravenous LD50 (systemic tolerance) in rats; assay type: in vivo
Experimental: as §3

[7] = Buffer 10 mM TRIS + 3 mM citric acid

## CC(=O)N(CC(O)CN(C(C)=O)c1c(I)c(C(=O)NCC(O)CO)c(I)c(C(=O)NCC(O)CO)c1I)c1c(I)c(C(=O)NCC(O)CO)c(I)c(C(=O)NCC(O)CO)c1I (stereo not shown) [Iodixanol]
[1]
  LD50 mice: 21.0 g I/kg bw
[2]
  LD50 rats: 21.0 g I/kg bw

## NC(=O)c1c(I)c(C(=O)NCC(O)CO)c(I)c(N(CC(O)CO)C(=O)CC(=O)N(CC(O)CO)c2c(I)c(C(N)=O)c(I)c(C(=O)NCC(O)CO)c2I)c1I (stereo not shown) [Iosimenol, N,N′-Bis[3-carbamoyl-5-(2,3-dihydroxypropyl-carbamoyl)-2,4,6-triiodophenyl]-N,N′-bis(2,3-dihydroxypropyl)-malonamide]
[3]; 20 mM TRIS and 5 mM citric acid, pH about 6.5 to 7.5, compared with TRIS/HCl or TRIS/citrate in molar equivalent ratio
  Stability on autoclaving (in words): always somewhat less or equally stable
[3]; Buffer 10 mM TRIS + 3.3 mM citrate, after 20 min at 121° C., average
  I− after, Avg.: 21.84 µg/mL
[3]; Buffer 10 mM TRIS + 3.3 mM citrate, after 20 min at 121° C.
  I− after: 22.34 µg/mL and 21.51 µg/mL and 21.66 µg/mL
[3]; Buffer 10 mM TRIS + 3.3 mM citrate, after minus before 20 min at 121° C.
  ΔI−: +17.84 μg/ml
[3]; Buffer 10 mM TRIS + 3.3 mM citrate, before autoclaving, average
  I− before, Avg.: 4.00 µg/mL
[3]; Buffer 10 mM TRIS + 3.3 mM citrate, before autoclaving
  I− before: 3.99 µg/mL and 4.17 µg/mL and 3.83 µg/mL
[3]; Buffer 20 mM TRIS + 5 mM citric acid, after 20 min at 121° C., average
  I− after, Avg.: 16.90 µg/mL
[3]; Buffer 20 mM TRIS + 5 mM citric acid, after 20 min at 121° C.
  I− after: 15.80 µg/mL and 15.96 µg/mL and 16.11 µg/mL and 16.53 µg/mL and 18.87 µg/mL and 18.13 µg/mL
[3]; Buffer 20 mM TRIS + 5 mM citric acid, after minus before 20 min at 121° C.
  ΔI−: +12.90 μg/ml
[3]; Buffer 20 mM TRIS + 5 mM citric acid, before autoclaving, average
  I− before, Avg.: 4.00 µg/mL
[3]; Buffer 20 mM TRIS + 5 mM citric acid, before autoclaving
  I− before: 4.08 µg/mL and 3.94 µg/mL and 3.42 µg/mL and 3.59 µg/mL and 4.44 µg/mL and 4.52 µg/mL
[3]; Buffer 20 mM TRIS/HCl, after 20 min at 121° C., average
  I− after, average (row not labelled): 14.22 µg/mL
[3]; Buffer 20 mM TRIS/HCl, after 20 min at 121° C.
  I− after: 14.07 µg/mL and 14.19 µg/mL and 14.39 µg/mL
[3]; Buffer 20 mM TRIS/HCl, after minus before 20 min at 121° C.
  ΔI− (row not labelled): +9.89 μg/ml
[3]; Buffer 20 mM TRIS/HCl, before autoclaving, average
  I− before, average (row not labelled): 4.33 µg/mL
[3]; Buffer 20 mM TRIS/HCl, before autoclaving
  I− before: 4.29 µg/mL and 4.44 µg/mL and 4.27 µg/mL
[3]; carboxylic acid neutralized by an amine, compared with TRIS/carboxylic acid where TRIS prevailed or TRIS/HCl
  Stability under autoclaving (in words): less stable
[4]; [7]
  pH after autoclaving: 6.90
  ΔI−: +24.2 μg/ml
[4]; Buffer 10 mM TRIS/HCl
  pH after autoclaving: 6.49
  ΔI−: +8.7 μg/ml
[4]; Buffer 20 mM TRIS/HCl
  pH after autoclaving: 7.00
  ΔI−: +7 μg/ml
[4]; TRIS/citric acid in a non-equivalent ratio compared with TRIS/HCl buffer
  Stability after autoclaving (in words): lower stability
[5]; mouse, in vivo, iv
  LD50 mice: 22.0 g I/kg bw
[5]; murine, intravenous
  LD50 in 20 mM TRIS with 5 mM citrate compared with 20 mM TRIS/HCl (in words): statistically significantly higher LD50
[6]; 20 mM TRIS + 5 mM citric acid, intravenous, 1 ml/min injection of 340 mg I/ml, data at 7 days
  LD50 rats: 23.5 g I/kg bw
[6]; rat, in vivo, iv
  LD50 rats: 20.0 g I/kg bw
[6]; rat, intravenous
  LD50 in 20 mM TRIS with 5 mM citrate compared with 20 mM TRIS/HCl (in words): statistically significantly higher LD50
